Key:
[1] = test system: tomato flavor intensity (consumer panel); experiment: Tomato consumer taste panel: overall tomato flavor intensity (gLMS) versus fruit chemical content; type: in vivo, human; settings: for association with tomato flavor intensity: volatiles with high odor unit values; for association with flavor intensity: univariate models
Protocol: (§1) Sensory analysis. Fully ripe fruit were harvested, and used for taste panels. A random subset of fruit was used for biochemical analysis. Three biological replicates, each consisting of 2-20 fruit (depending on fruit size), were assayed for each variety. […] Panelists were between the ages of 18 and 78 with a median age of 22. […] An average of 85 (range of 66-95) of these panelists evaluated between 4-6 varieties in a session. All panelists went through a training session to familiarize them with the scaling and procedures. Tomatoes were sliced into wedges (or in halves for grape/cherry types) and each panelist was given two pieces for evaluation. Panelists took a bite of each sample, chewed and swallowed it, and rated overall liking and liking for texture. They then rated the perceived intensities of sweetness, sourness, saltiness, umami sensation, bitterness and overall tomato flavor. They were free to take as many bites as necessary to complete the assessments. They were instructed to take a bite of an unsalted cracker and a sip of water between samples. Samples were presented to the panelists in a randomized order. Hedonic ratings used the hedonic gLMS. This scale assesses the liking for tomatoes in the context of all pleasure/displeasure experiences: 0=neutral, −100=strongest disliking of any kind experienced, and +100=strongest liking of any kind experienced. Sensory intensity ratings used the gLMS (7, 8, 19).This scale assesses taste and flavor sensations in the context of all sensory experience (7): 0=no sensation, 100=strongest sensation of any kind experienced. Both scales were devised to provide valid comparisons across subjects.
(§2) Statistical analysis. The 68 chemical compounds measured in this experiment were divided into six groups based upon biochemical properties: sugars, branched chain amino acids, lipids, carotenoids, phenolics, and acids. A small number of compounds for which biosynthetic pathways are not established were assigned to one of the six classes based upon their correlations with other classified compounds. All pairwise correlations among the set of 68 compounds were calculated. Correlation coefficients were sorted using Modulated Modularity Clustering (MMC) (9) as a visual aid for identifying compounds that are closely related in this sample (FIG. 1; Table 4). Biochemical groups were examined for compounds within the group that were highly correlated and compounds that were upstream in the relevant metabolic pathways were preferentially selected.
(§3) All analyses were performed in SAS v 9.2.

[2] = test system: perceived sweetness of tomato fruit (consumer panel); experiment: Tomato consumer taste panel: perceived sweetness (gLMS) regressed on fruit chemical content; type: in vivo, human; settings: for association with sweetness: univariate models; for t: multiple regression of volatile against perceived sweetness of tomato, independent of the measures of sugar
Protocol: as §1, §2, §3
In conducting the multiple regression analysis on the tomato data set, the independent variables were the sugar content (glucose+fructose), and the flavor (indicated by the retronasal perception of volatiles), while the dependent variable was the perceived sweetness.

[3] = test system: perceived sweetness of tomato fruit (consumer panel); settings: analysis of a volatile subset (Tieman 2012); cited from earlier work
[4] = test system: perceived sweetness intensity of strawberry fruit (consumer panel); experiment: Strawberry consumer panel: multiple regression of volatile concentration against perceived sweetness intensity independent of glucose, fructose or sucrose; type: in vivo, human; settings: for FRUCTOSE t RATIO: volatile concentration regressed against perceived sweetness intensity independent of fructose; for GLUCOSE t RATIO: volatile concentration regressed against perceived sweetness intensity independent of glucose; for SUCROSE t RATIO: volatile concentration regressed against perceived sweetness intensity independent of sucrose
Protocol: Step-wise multiple regressions of all volatile compounds against perceived intensity of sweetness is performed independent of either glucose, fructose, or sucrose concentration, separately (Table 6).
(§4) All consumer panels were approved by the University of Florida Institutional Review Board. […] Ages of panelist ranged from 18 to 71, with a median age of 24. Panelists self-classified themselves as 98 White or Caucasian, 11 Black or African-American, 1 Native American, Alaska Native or Aleutian, 41 Asian/Pacific Islander, and 15 Other. […] Fresh, fully-ripe strawberry fruit was removed from overnight 4° C. dark storage and allowed to warm to room temperature prior to sensory analysis. Each panelist was given one to two whole strawberries for evaluation, depending on cultivar availability. Panelist took a bite of each sample, chewed, and swallowed it. Ratings for overall liking and liking for texture were scaled on hedonic general labeled magnitude scale (gLMS) in the context of all pleasure/displeasure experiences. […] Scales were employed to mediate valid comparisons across subjects and sessions.
Multiple regressions were performed with the “enter” method in SPSS for identification of sweetness enhancing volatiles. Individual volatile compound concentrations were regressed using the “enter” method in SPSS Statistics (IBM Corp, Armonk, N.Y., USA).

[5] = test system: texture liking of strawberry fruit (consumer panel); experiment: Strawberry consumer panel: bivariate fit to texture liking; type: in vivo, human; settings: bivariate linear fit; X = content of the substance in strawberry fruit, Y = Texture liking
Protocol: as §4
(§5) Bivariate analysis among individual measurements of samples allowed for linear fit, which includes summary of fit, analysis of variance, t-test, and correlation analysis for density ellipse. Two-way Ward hierarchical cluster analysis of all metabolite concentrations and strawberry samples accomplished in JMP.

[6] = test system: strawberry flavor intensity (consumer panel); experiment: Strawberry consumer panel: bivariate fit to strawberry flavor intensity; type: in vivo, human; settings: bivariate linear fit; X = content of the substance in strawberry fruit, Y = Flavor Intensity (FI)
Protocol: as §4, §5

C/C=C/C(=O)C1=C(C)C=CCC1(C)C [β-damascenone]
association with tomato flavor intensity [1]: not associated with tomato flavor intensity

CCC(C)OC(C)=O (centres unmarked) [sec-butyl acetate]
association with flavor intensity after accounting for fructose ([1]; listed as 2-butylacetate): independently significant after accounting for fructose

CC1C=CC2C(C1)C2(C)C (centres unmarked) [4-carene]
association with sweetness ([2]; tomato): showed evidence for association with sweetness in univariate models

CCCCCCCCC=O [nonyl aldehyde]
t [2]: 1.148

CCCCC/C=C/C=C/C=O [trans,trans-2,4-decadienal]
association with flavor intensity after accounting for fructose [1]: independently significant after accounting for fructose | association with flavor intensity [1]: associated with flavor intensity in univariate models

CC(C)CCO [3-methyl-1-butanol]
association with flavor intensity after accounting for fructose ([1]; listed as 3-methyl-1-butenol): independently significant after accounting for fructose | association with flavor intensity [1]: associated with flavor intensity in univariate models | association with sweetness after accounting for fructose ([2]; tomato): independent predictors of sweetness after accounting for fructose | association with sweetness ([2]; tomato): showed evidence for association with sweetness in univariate models | enhancing sweetness intensity independent of fructose [3]: enhancing sweetness intensity independent of fructose

CCCCCCC=O [heptaldehyde]
association with sweetness ([2]; tomato): showed evidence for association with sweetness in univariate models

CC/C=C\CCO [cis-3-hexen-1-ol]
association with flavor intensity after accounting for fructose [1]: independently significant after accounting for fructose | association with flavor intensity [1]: associated with flavor intensity in univariate models | association with sweetness ([2]; tomato): showed evidence for association with sweetness in univariate models

COc1ccccc1O [guaiacol]
association with sweetness ([2]; tomato): showed evidence for association with sweetness in univariate models

c1ccc2scnc2c1 [benzothiazole]
association with flavor intensity [1]: associated with flavor intensity in univariate models

O=C(CO)[C@@H](O)[C@H](O)[C@H](O)CO [fructose]
association with flavor intensity [1]: associated with flavor intensity in univariate models | association with sweetness ([2]; tomato): showed evidence for association with sweetness in univariate models

CC/C=C\CO [1576-95-0]
FRUCTOSE t RATIO [4]: −0.186 | GLUCOSE t RATIO [4]: −0.231 | SUCROSE t RATIO [4]: −0.304 | Parameter Estimates-fit to Texture Liking: Estimate [5]: 0.1369 | Parameter Estimates: Estimate [6]: −0.006042

CC(C)=CCC/C(C)=C/C=O [geranial]
association with flavor intensity [1]: associated with flavor intensity in univariate models | association with sweetness after accounting for fructose ([2]; tomato): independent predictors of sweetness after accounting for fructose | correlation with sweetness ([2]; tomato, direction of correlation): positively correlated with sweetness | contribution to perceived sweetness ([2]; tomato, multiple regression analysis using the volatiles): positive contributor to perceived sweetness | association with sweetness ([2]; tomato): showed evidence for association with sweetness in univariate models | enhancing sweetness intensity independent of fructose [3]: enhancing sweetness intensity independent of fructose

CSCCC=O [methional]
association with flavor intensity [1]: associated with flavor intensity in univariate models | association with sweetness ([2]; tomato): showed evidence for association with sweetness in univariate models

C=CC(=O)CCCCC [1-octen-3-one]
association with flavor intensity after accounting for fructose [1]: independently significant after accounting for fructose | association with flavor intensity [1]: associated with flavor intensity in univariate models

CCCCCCCC(C)=O [821-55-6]
FRUCTOSE t RATIO [4]: −0.267 | GLUCOSE t RATIO [4]: −0.467 | SUCROSE t RATIO [4]: 1.192 | Parameter Estimates-fit to Texture Liking: Estimate [5]: 0.09508 | Parameter Estimates: Estimate [6]: 0.06252

O=CCc1ccccc1 [phenylacetaldehyde]
association with flavor intensity [1]: associated with flavor intensity in univariate models | association with tomato flavor intensity [1]: not associated with tomato flavor intensity | association with sweetness ([2]; tomato): showed evidence for association with sweetness in univariate models

CCCCOC(C)=O [123-86-4, butyl acetate]
association with flavor intensity [1]: associated with flavor intensity in univariate models | association with sweetness ([2]; tomato): showed evidence for association with sweetness in univariate models

CCC/C=C/C=O [6728-26-3, (2E)-2-hexenal or trans-2-hexenal]
FRUCTOSE t RATIO [4]: 3.349 | GLUCOSE t RATIO [4]: 3.314 | SUCROSE t RATIO [4]: −0.816 | Parameter Estimates-fit to Texture Liking: Estimate [5]: 0.000185 | t [2]: 0.051 | Parameter Estimates: Estimate [6]: 0.0003625

O=C(O)CC(O)(CC(=O)O)C(=O)O [citric acid]
association with flavor intensity after accounting for fructose [1]: independently significant after accounting for fructose | association with flavor intensity [1]: associated with flavor intensity in univariate models

C=CCc1ccc(O)c(OC)c1 [eugenol]
association with sweetness ([2]; tomato): showed evidence for association with sweetness in univariate models

From patent US20170119034A1, “COMPOSITIONS AND METHODS FOR MODIFYING PERCEPTION OF SWEET TASTE” (University of Florida Research Foundation, Inc., priority 2012, published 2017)
